This assay relates to helper T cells in human PBMCs. In words: ex vivo T cell proliferation assay of peptides with CD8+ / CD25hi depleted PBMC. It is filed as cell-based. The conditions noted are these: for helper T cell epitope status by T cell assays (database entry): proliferation assay, threshold SI≧2, CD25hi depletion 10 and 20 minutes; for Number of responding donors: from 50 donors with a range of MHC class haplotypes; for Mean SI: mean stimulation index for responding donors, 50 donors tested; for T cell epitope strength (T cell proliferative responses): PBMCs of donor 475, peptide 5 μM.

On to QSISNWGNWYQQKPG [9-L→G], for which the “helper T cell epitope status by T cell assays (database entry)” value (“helper T cell epitope status” for short) is “negative”.
For TVGYNIPPMPL [26 F→G], the “helper T cell epitope status” value was “negative”.
On to LQHASGGLA [test peptide], for which the “Number of responding donors” value came to 2 and the “Mean SI” value was 2.2 ± 0.2.
As to “GQHESGPLG [control peptide with altered P1 residue]”, the “Number of responding donors” value is given as 0.
On to TVFYNIPPMPL [compound 26], for which the “T cell epitope strength (T cell proliferative responses)” value is “strong” and the “helper T cell epitope status” value is “helper T cell epitopes”.
For the sequence PKYRNGQPLNSLKIAT [25 M→G], the “helper T cell epitope status” value was “negative”.
For the sequence LSCAAGGRA, the “Number of responding donors” value is 3 and the “Mean SI” value is given as 2.3 ± 0.5.
On the same counts, the results for FQHESGPLG [test peptide] are 3 and 2.8 ± 0.7.
In the case of IQHESASLR [test peptide], the “Number of responding donors” value came out at 3 and the “Mean SI” value is 2.6 ± 0.1.
For the sequence ILWEWASYR, the “Number of responding donors” value is 3 and the “Mean SI” value came to 2.6 ± 0.6.
For PKYRNMQPLNSLKIAT [compound 25], the “T cell epitope strength (T cell proliferative responses)” value is “strong” and the “helper T cell epitope status” value was “helper T cell epitopes”.
Turning to “GQHESASLR [control peptide with altered P1 residue]”, the “Number of responding donors” value is on record as 0.
For the sequence “GQHASGGLA [control peptide with altered P1 residue]”, the “Number of responding donors” value came to 0.
As to FQHTSILLI [test peptide], the “Number of responding donors” value is 5 and the “Mean SI” value stood at 3.8 ± 0.7.
Turning to “GQHWSYPLT [control peptide with altered P1 residue]”, the “Number of responding donors” value was 0.
Consider GDKGVSWYQQGSGQS [2-F→G], for which the “helper T cell epitope status” value is “negative”.
Take FKGEQGPKG: the “Number of responding donors” value amounted to 4 and the “Mean SI” value was 3.5 ± 0.7.
Consider LQHWSYPLT, for which the “Number of responding donors” value is given as 5 and the “Mean SI” value is 6.3 ± 1.3.
As to “GQHTSILLI [control peptide with altered P1 residue]”, the “Number of responding donors” value worked out at 0.
GFGBHIGPLGEP: the “helper T cell epitope status” value is “non-T cell epitope”.
As to FLLTRILTI, the “Number of responding donors” value was 6 and the “Mean SI” value amounted to 3.9 ± 1.6.
